Data from patent US20090227619A1, “Harmine derivatives, intermediates used in their preparations, preparation processes and use therefo” (priority 2003, published 2009).
Where two headings read alike, the source gives them in different places.

Columns and labels:
HepG2 = experiment: In vitro cytotoxicity, IC50 by MTT method, HepG2; type: cell-based, human
Procedure, shortened: (§1)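 MTT viability, 48 h exposure: cells 10^5/ml in RPMI1640 + 10% FBS, 37 °C/5% CO2; MTT 4 h, DMSO solubilisation, A490.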

PLA-801 = experiment: In vitro cytotoxicity, IC50 by MTT method, PLA-801; type: cell-based
Procedure, shortened: as §1

Bel-7402 = experiment: In vitro cytotoxicity, IC50 by MTT method, Bel-7402; type: cell-based
Procedure, shortened: as §1

BGC-823 = experiment: In vitro cytotoxicity, IC50 by MTT method, BGC-823; type: cell-based
Procedure, shortened: as §1

Hela = experiment: In vitro cytotoxicity, IC50 by MTT method, Hela; type: cell-based
Procedure, shortened: as §1

Lovo = experiment: In vitro cytotoxicity, IC50 by MTT method, Lovo; type: cell-based
Procedure, shortened: as §1

NIH3T3 = experiment: In vitro cytotoxicity, IC50 by MTT method, NIH3T3; type: cell-based
Procedure, shortened: as §1

CT-DNA [1] = experiment: DNA thermal denaturation, determination of ΔTm; type: binding; conditions: 20 uM compound, Tm of CT-DNA alone 61° C.
Procedure: Experiments were carried out in PE buffer (1 mM Na2HPO4, 0.1 mM EDTA, pH 7.6) in a thermostatically controlled cell hold, and the quartz cuvette (1 cm path length) was heated by circulating water at a heating rate of 0.5° C./min from 25 to 95° C. Amsacrine and Doxorubicin Hydrochloride were used as standards. In all cases, the concentration of CT-DNA was 15 ug/ml. The ‘melting’ temperature Tm was taken as the mid-point of the hyperchromic transition.
ΔTm=Tm^drug-DNA complex−Tm^DNA alone
The ΔTm of each compound was calculated, Experiments were repeated three times, and an average value was calculated.

CT-DNA [2] = experiment: UV absorption spectrum method with CT-DNA; type: binding; conditions: CT-DNA 40 ug/ml, compound 20 uM, 37° C. for 2 h, OD at 260 nm
Procedure: Compounds to be tested (20 uM) were added into the PE buffer solution, and its scan curve was identified by the spectrograph at a wavelength of from 200 to 400 nm. CT-DNA (40 ug/ml) and compounds to be tested (20 uM) were added into the PE buffer solution. The mixture was cultured at 37° C. for 2 h, and its scan curve was identified by the UV spectrograph at a wavelength of from 200 to 400 nm. […] After that, the OD value at 260 nm of the scan curve of the medicaments tested and that of the CT-DNA mixture OD value at 260 nm of the scan curve were calculated and compared to determine the influences of the medicaments tested on the UV absorption spectrum of the DNA molecules.

[3] = Homo sapiens, HepG2 cell strain, read-out: IC50 HepG2
[4] = PLA-801 cell strain, read-out: IC50 PLA-801
[5] = Homo sapiens, Bel-7402, Bel7402 cell strain, read-out: IC50 Bel7402
[6] = Homo sapiens, BGC-823, BGC823 cell strain, read-out: IC50 BGC823
[7] = Homo sapiens, Hela cell strain, read-out: IC50 Hela
[8] = Homo sapiens, Lovo cell strain, read-out: IC50 Lovo
[9] = Mus musculus, NIH3T3 cell strain, read-out: IC50 NIH3T3
[10] = CT-DNA 15 ug/ml, PE buffer pH 7.6

| melting point | Structure (SMILES) | ΔTm (CT-DNA [1]; CT-DNA thermal denaturation) | IC50 (HepG2; [3]) | IC50 (PLA-801; [4]) | IC50 (Bel-7402; [5]) | IC50 (BGC-823; [6]) | IC50 (Hela; [7]) | IC50 (Lovo; [8]) | IC50 (NIH3T3; [9]) | other results |
| --- | --- | --- | --- | --- | --- | --- | --- | --- | --- | --- |
| – | COc1ccc2c3ccnc(C)c3n(CCO)c2c1 [Compound 5, 9-hydroxyethyl-7-methoxy-1-methyl-β-carboline] | 5.9 °C | – | – | – | – | – | – | – | IC50 (HepG2; Homo sapiens, HepG2, MTT, read-out: IC50): 310 µM; IC50 (PLA-801; PLA-801, MTT, read-out: IC50): 80 µM; IC50 (Bel-7402; Homo sapiens, Bel-7402, BeI7402, MTT, read-out: IC50): 240 µM; IC50 (BGC-823; Homo sapiens, BGC-823, BGC823, MTT, read-out: IC50): 200 µM; IC50 (Hela; Homo sapiens, Hela, MTT, read-out: IC50): 30 µM; IC50 (Lovo; Homo sapiens, Lovo, MTT, read-out: IC50): 30 µM; IC50 (NIH3T3; Mus musculus, NIH3T3, MTT, read-out: IC50): 80 µM |
| – | COc1ccc2c3ccnc(C)c3n(Cc3c(F)c(F)c(F)c(F)c3F)c2c1 [Compound 7, 9-(2′,3′,4′,5′,6′-pentafluoro)benzyl-7-methoxy-1-methyl-β-carboline] | 7.5 °C | – | – | – | – | – | – | – | IC50 (HepG2; HepG2, MTT, read-out: IC50): 50 µM; IC50 (PLA-801; PLA-801, MTT, read-out: IC50): 420 µM; IC50 (Bel-7402; BeI7402, MTT, read-out: IC50): 40 µM; IC50 (BGC-823; BGC823, MTT, read-out: IC50): 20 µM; IC50 (Hela; Hela, MTT, read-out: IC50): 40 µM; IC50 (Lovo; Lovo, MTT, read-out: IC50): 40 µM; IC50 (NIH3T3; NIH3T3, MTT, read-out: IC50): 50 µM |
| 86 to 88 °C | CCCCOC(=O)c1cc2c3ccccc3n(CC)c2cn1 [Compound 39, butyl 9-ethyl-β-carboline-3-carboxylate] | 1.6 °C | 70 µM | 110 µM | 70 µM | 80 µM | 70 µM | 80 µM | 80 µM | – |
| 141 to 142 °C | CC(=O)COc1cc2c3ccccc3n(Cc3ccccc3)c2cn1 [Compound 43, 9-benzyl-3-acetylmethoxy-β-carboline] | – | 300 µM | 250 µM | 130 µM | > 3000 µM | 500 µM | > 3000 µM | > 3000 µM | Influence on the UV absorption of DNA (CT-DNA [2]): increase the UV absorption of DNA |
| 262 to 264 °C | Cc1nc(C(=O)O)cc2c3ccccc3n(C)c12 [Compound 62, 1,9-dimethyl-β-carboline-3-carboxylic acid] | – | 1380 µM | 2350 µM | 1500 µM | 640 µM | 1110 µM | 440 µM | 630 µM | – |
| 243 to 245 °C | CCn1c2ccccc2c2cc(C(=O)O)nc(C)c21 [Compound 63, 9-ethyl-1-methyl-β-carboline-3-carboxylic acid] | – | 2800 µM | 2330 µM | 1820 µM | 1660 µM | 970 µM | 590 µM | 710 µM | – |
| 108 to 109 °C | CCCc1nc(C(=O)OCC)cc2c3ccccc3n(C)c12 [Compound 68, ethyl 1-propyl-9-methyl-β-carboline-3-carboxylate] | – | 100 µM | 140 µM | 460 µM | 110 µM | 1360 µM | 60 µM | 80 µM | – |
| 86 to 87 °C | CCCc1nc(C(=O)OCC)cc2c3ccccc3n(CC)c12 [Compound 69, ethyl 1-propyl-9-ethyl-β-carboline-3-carboxylate] | – | 110 µM | 710 µM | 330 µM | 230 µM | 90 µM | 100 µM | 100 µM | – |
| 158 to 159 °C | CCCc1nc(C(=O)OCC)cc2c3ccccc3n(Cc3ccccc3)c12 [Compound 70, ethyl 9-benzyl-1-propyl-β-carboline-3-carboxylate] | – | 790 µM | 160 µM | 1010 µM | 1010 µM | 810 µM | 1170 µM | 1570 µM | – |
| 181 to 183 °C | CCCc1nc(C(=O)O)cc2c3ccccc3n(C)c12 [Compound 72, 9-methyl-1-propyl-β-carboline-3-carboxylic acid] | – | 1170 µM | 1400 µM | > 3000 µM | 540 µM | 960 µM | 210 µM | 570 µM | – |
| 189 to 191 °C | CCCc1nc(C(=O)O)cc2c3ccccc3n(CC)c12 [Compound 73, 1-propyl-9-ethyl-β-carboline-3-carboxylic acid] | – | 540 µM | 710 µM | 570 µM | 390 µM | 420 µM | 260 µM | 390 µM | – |
| 205 to 207 °C | COC(=O)c1cc2c3ccccc3n(C)c2c(-c2ccccc2)n1 [Compound 76, methyl 1-phenyl-9-methyl-β-carboline-3-carboxylate] | – | > 3000 µM | > 3000 µM | 620 µM | > 3000 µM | > 3000 µM | > 3000 µM | > 3000 µM | – |
| 169 to 170 °C | CCn1c2ccccc2c2cc(C(=O)OC)nc(-c3ccccc3)c21 [Compound 77, methyl 1-phenyl-9-ethyl-β-carboline-3-carboxylate] | – | > 3000 µM | > 3000 µM | 380 µM | > 3000 µM | 2660 µM | 70 µM | 140 µM | – |
| – | c1ccc2c(c1)[nH]c1cnccc12 [Compound 80, β-carboline] | 3.1 °C | – | – | – | – | – | – | – | IC50 (HepG2; Homo sapiens, HepG2, read-out: IC50 HepG2): 230 µM; IC50 (PLA-801; read-out: IC50 PLA-801): 20 µM; IC50 (Bel-7402; Homo sapiens, Bel-7402, read-out: IC50 Bel7402): 380 µM; IC50 (BGC-823; Homo sapiens, BGC-823, read-out: IC50 BGC823): 270 µM; IC50 (Hela; Homo sapiens, HeLa, read-out: IC50 Hela): 350 µM; IC50 (Lovo; Homo sapiens, LoVo, read-out: IC50 Lovo): 40 µM; IC50 (NIH3T3; Mus musculus, NIH3T3, read-out: IC50 NIH3T3): 20 µM |
| – | Cn1c2ccccc2c2ccncc21 [Compound 81, 9-methyl-β-carboline] | 3.3 °C | 100 µM | 220 µM | 300 µM | 200 µM | 330 µM | 220 µM | 120 µM | – |
| – | CCn1c2ccccc2c2ccncc21 [Compound 82, 9-ethyl-β-carboline] | 4.2 °C | 170 µM | 130 µM | 310 µM | 170 µM | 230 µM | 160 µM | 100 µM | Influence on the UV absorption of DNA (CT-DNA [2]): reduce the UV absorption of DNA |
| – | COc1cccc2c1C(=O)c1c(O)c3c(c(O)c1C2=O)C[C@@](O)(C(=O)CO)C[C@@H]3O[C@H]1C[C@H](N)[C@H](O)[C@H](C)O1 [adriamycin, reference compound] | 10.8 °C | – | – | – | – | – | – | – | ΔTm (CT-DNA [1]; [10]): 10.8 °C; Influence on the UV absorption of DNA (CT-DNA [2]): reduce the UV absorption of DNA |
| – | CC[C@@]1(O)C(=O)OCc2c1cc1n(c2=O)Cc2cc3ccccc3nc2-1 [camptothecin, reference compound] | −2.5 °C | – | – | – | – | – | – | – | ΔTm (CT-DNA [1]; [10]): −2.5 °C; Influence on the UV absorption of DNA (CT-DNA [2]): increase the UV absorption of DNA |

| Structure (SMILES) | melting point | ΔTm (CT-DNA [1]; CT-DNA thermal denaturation) | IC50 (HepG2; [3]) | IC50 (PLA-801; [4]) | IC50 (Bel-7402; [5]) | IC50 (BGC-823; [6]) | IC50 (Hela; [7]) | IC50 (Lovo; [8]) | IC50 (NIH3T3; [9]) | other results |
| --- | --- | --- | --- | --- | --- | --- | --- | --- | --- | --- |
| Cc1nc(C(=O)O)cc2c3ccccc3n(CCCc3ccccc3)c12 [Compound 65, 9-phenylpropyl-1-methyl-β-carboline-3-carboxylic acid] | 186 to 188 °C | – | 140 µM | 210 µM | 560 µM | 270 µM | 220 µM | 50 µM | 110 µM | – |
| CCCc1nc(C(=O)OCC)cc2c3ccccc3n(CCCc3ccccc3)c12 [Compound 71, ethyl 9-phenylpropyl-1-propyl-β-carboline-3-carboxylate] | 92 to 93 °C | – | 120 µM | 260 µM | 910 µM | 1320 µM | 60 µM | 60 µM | 190 µM | – |
